Measured values: patent publication US20230296625A1, “CXCL14 AS PREDICTIVE BIOMARKER FOR ACUTE LIVER FAILURE AND DEATH” (University of Kansas, priority 2022, published 2023)
Like-named read-outs stand apart in the source and are kept apart here.

Experiments:
[1] = tested on: acetaminophen overdose patients; conditions: human, in vivo
Procedure: A series of experiments were performed in order to evaluate the relevance of the findings from the mouse model (FIGS. 1A-1C), and whether the data can be relevant to humans. Plasma samples ([…]) were from acetaminophen overdose patients, where the plasma samples include 10 survivors with low injury, 30 survivors with high injury and 19 non-survivors. 10 healthy volunteer plasma samples were also obtained for comparison. Patients were categorized based on alanine amino transferase (ALT) level, with survivors with very mild ALT elevations at < 100 U/L categorized as low injury and survivors with peak ALT of 6200 U/L categorized as high injury.
Since the time from acetaminophen exposure until the patient going to the clinic for treatment is highly variable, the day of peak ALT as day 1 was set for all patients to streamline data.
We measured CXCL14 in plasma of acetaminophen-induced injury patients for three days. To make the data more reliable due to the complicated admission day and time of acetaminophen being taken, Day 1 is chosen as the day of peak ALT. We observed no CXCL14 increase in low injury patients (<100 pg/mL). […] In contrast, we found CXCL14 level is significant increased at day 1 (7000 pg/mL), but its level keep elevated by day 3 (8000 pg/mL) with a much higher level compared to the survivors (FIG. 2B). Next, we want to determine whether CXCL14 level in plasma can predict patient outcome.
All results were expressed as mean ± SE. Comparisons between multiple groups were performed with one-way ANOVA or, where appropriate, by two-way ANOVA, followed by a post hoc Bonferroni test. If the data were not normally distributed, we used the Kruskal-Wallis Test (nonparametric ANOVA) followed by Dunn’s Multiple Comparisons Test. P < 0.05 was considered significant. Receiver operating characteristic analysis curve was performed to determine optimal threshold values to discriminate between survivors and non-survivors.

human liver = conditions: in vivo
Procedure: A western blot analysis on the removed liver from a transplant recipient after acetaminophen overdose was carried out to determine whether circulating CXCL14 levels also reflected levels within the human liver. […] Therefore, the biological sample can be a blood sample (or plasma) or a liver sample.
Histology and Immunohistochemistry Formalin-fixed human and mouse tissue samples were embedded in paraffin and 5 µm sections were cut. Sections were stained with hematoxylin and eosin (H&E) for evaluation of the areas of necrosis. Additional liver sections were hydrated and went through antigen retrieval by boiling in sodium citrate buffer (pH 6.0). Liver sections were blocked in 3% BSA and serum then incubated with the primary antibodies overnight. Primary antibodies included anti-rabbit CD68 (Cell Signaling Technology, cat # 26042). Liver sections were washed and incubated in 3% hydrogen peroxide to block endogenous peroxidases. Biotinylated secondary antibody and DAB substrate were used to visualize the signals. Immunofluorescence staining was performed using 5 µm cryosections prepared from OCT-embedded tissue. Sections were blocked with 3% BSA and stained with anti-rabbit CXCL14 (Abcam, cat #264467). Fluorescence conjugated secondary antibodies Alexa Fluor 488 (Invitrogen, cat #A11034) goat anti rabbit was used.
Western blotting snap frozen tissue was homogenized in a CHAPs containing protein buffer and total protein was measured using the BCA assay (Pierce Scientific, Waltham, Massachusetts). Gel electrophoresis was carried out on protein lysates from individual samples, which were then transferred to a nitrocellulose blot.

[2] = tested on: fasted male C57BL/6J mice; conditions: mouse, in vivo
Procedure: The liver and plasma samples were collected between 6-72 hours after acetaminophen exposure.
ALT assay plasma alanine aminotransferase (ALT) activities were measured using an ALT test kit (Point Scientific, Inc, Canton, MI) per the manufacturer’s instruction.

CC(=O)Nc1ccc(O)cc1 [acetaminophen, N-acetyl-p-aminophenol]
ALT elevations [1]: < 100 U/L | bilirubin [1]: 12.5 mg/dL | prothrombin times [1]: significantly higher | ALT (human liver): 1620.9 U/L | hepatic levels of CXCL14 (western blot) (human liver): Elevation in hepatic levels of CXCL14 are evident | macrophage staining with CD68 (human liver): significant increase in macrophage staining | necrosis by H&E staining (human liver): significant areas of necrosis | staining for CXCL14 in liver sections (human liver): significant elevations | plasma ALT levels ([2]; 300 mg/kg): return to baseline in both doses by 72 hours | plasma ALT levels ([2]; 600 mg/kg): return to baseline in both doses by 72 hours
